These results are taken from ChEMBL document CHEMBL4411300 (Eur J Med Chem, 2019).

The structures appear in SMILES notation. The source made the active and inactive calls. The calls are words filed in the database; no cut-off is given here. Where only a bound is given, the exact number is not on record here.

The nature of data set [1]: Hepatotoxicity in Balb/c mouse infected with Trypanosoma cruzi MHOM/Pe/2011/Arequipa DTU 5 trypomastigotes assessed as change in ratio of serum ALT to GPT level at 20 mg/kg, po once daily for 5 consecutive days starting from day 75 post infection measured on day 127 post infection (reference value: 64 U/L). It counts as toxicity, organism-based. Conditions: in vivo.
Data set [2] can be described thus: Cardiotoxicity in Balb/c mouse infected with Trypanosoma cruzi MHOM/Pe/2011/Arequipa DTU 5 trypomastigotes assessed as decrease in serum LDH level at 20 mg/kg, po once daily for 5 consecutive days starting from day 75 post infection measured on day 81 post infection relative to control. In kind it is toxicity, organism-based. More on the design: scale not given: the % may be the effect or the level left. Particulars: in vivo.

Data set [3] can be described thus: Hepatotoxicity in Balb/c mouse infected with Trypanosoma cruzi MHOM/Pe/2011/Arequipa DTU 5 trypomastigotes assessed as change in alkaline phosphatase level at 20 mg/kg, po once daily for 5 consecutive days starting from day 10 post infection measured on day 127 post infection by biochemical analysis (reference value: 161 U/L). It counts as toxicity, organism-based. Particulars: in vivo.

Data set [4] in a line: Hepatotoxicity in Balb/c mouse infected with Trypanosoma cruzi MHOM/Pe/2011/Arequipa DTU 5 trypomastigotes assessed as increase in ratio of serum AST to GOT level at 20 mg/kg, po once daily for 5 consecutive days starting from day 10 post infection measured on day 16 post infection relative to control. In kind it is toxicity, organism-based. Conditions: in vivo.
Data set [5] in a line: Hepatotoxicity in Balb/c mouse infected with Trypanosoma cruzi MHOM/Pe/2011/Arequipa DTU 5 trypomastigotes assessed as increase in ratio of serum AST to GOT level at 20 mg/kg, po once daily for 5 consecutive days starting from day 75 post infection measured on day 127 post infection relative to control. It counts as toxicity, organism-based. Particulars: in vivo.
A short description of data set [6]: Nephrotoxicity in Balb/c mouse infected with Trypanosoma cruzi MHOM/Pe/2011/Arequipa DTU 5 trypomastigotes assessed as decrease in serum uric acid level at 20 mg/kg, po once daily for 5 consecutive days starting from day 75 post infection measured on day 127 post infection relative to control. In kind it is toxicity, organism-based. More on the design: scale not given: the % may be the effect or the level left. Conditions: in vivo.

The nature of data set [7]: Hepatotoxicity in Balb/c mouse infected with Trypanosoma cruzi MHOM/Pe/2011/Arequipa DTU 5 trypomastigotes assessed as change in ratio of serum ALT to GPT level at 20 mg/kg, po once daily for 5 consecutive days starting from day 10 post infection measured on day 127 post infection by biochemical analysis (reference value: 49 U/L). It counts as toxicity, organism-based. Conditions: in vivo.

Data set [8] deals with Trypanosoma cruzi. Kind of data set: Antitrypanosomal activity against Trypanosoma cruzi MHOM/Pe/2011/Arequipa DTU 5 trypomastigotes infected in Balb/c mouse assessed as reduction in Ig-G level in serum at 20 mg/kg, po pretreated once daily for 5 consecutive days starting from day 10 post infection followed by cyclophosphamide-induced immunosuppression on day 100 post infection every 4 days for a maximum of 3 doses measured on day 127 post infection by ELISA. In kind it is functional, organism-based. (In general: An ELISA detects its analyte on a solid surface through an enzyme-linked reagent.)

The test system of data set [9] is Trypanosoma cruzi. Kind of data set: Antitrypanosomal activity against Trypanosoma cruzi MHOM/Pe/2011/Arequipa DTU 5 trypomastigotes infected in Balb/c mouse assessed as reduction in Ig-G level in serum at 20 mg/kg, po once daily for 5 consecutive days starting from day 10 post infection measured on day 16 post infection by ELISA. It counts as functional, organism-based.

Data set [10] deals with Trypanosoma cruzi. Kind of data set: Antitrypanosomal activity against Trypanosoma cruzi MHOM/Pe/2011/Arequipa DTU 5 epimastigotes assessed as effect on parasite glycolytic pathway by measuring increase in glycerol excretion at IC25 after 72 hrs by 1H NMR method. In kind it is functional, organism-based.
Data set [11] has as its system Trypanosoma cruzi. Kind of data set: Antitrypanosomal activity against Trypanosoma cruzi MHOM/Pe/2011/Arequipa DTU 5 epimastigotes assessed as effect on parasite glycolytic pathway by measuring decrease in L-alanine excretion at IC25 after 72 hrs by 1H NMR method. In kind it is functional, organism-based.
In data set [12] the test system is Trypanosoma cruzi. Kind of data set: Antitrypanosomal activity against Trypanosoma cruzi MHOM/Pe/2011/Arequipa DTU 5 epimastigotes assessed as effect on parasite glycolytic pathway by measuring decrease in ethanol excretion at IC25 after 72 hrs by 1H NMR method. On the set-up: scale not given: the % may be the effect or the level left. It counts as functional.

The subject of data set [13] is Trypanosoma cruzi. Kind of data set: Antitrypanosomal activity against Trypanosoma cruzi MHOM/Pe/2011/Arequipa DTU 5 epimastigotes assessed as effect on parasite glycolytic pathway by measuring decrease in pyruvate excretion at IC25 after 72 hrs by 1H NMR method. It counts as functional, organism-based.
Data set [14] can be described thus: Selectivity index, ratio of IC50 for African green monkey Vero cells to IC50 for Trypanosoma cruzi TINF/CH/1956/Tulahuen DTU 6 epimastigotes. It counts as toxicity. Particulars: read-out: Ratio IC50.
In data set [15] the test system is Trypanosoma cruzi. Kind of data set: Trypanocidal activity against Trypanosoma cruzi MHOM/Pe/2011/Arequipa DTU 5 epimastigotes after 48 to 72 hrs by resazurin dye based assay. In kind it is functional, organism-based.
The subject of data set [16] is Trypanosoma cruzi. Kind of data set: Antitrypanosomal activity against Trypanosoma cruzi MHOM/Pe/2011/Arequipa DTU 5 trypomastigotes infected in Balb/c mouse assessed as reduction in Ig-G level in serum at 20 mg/kg, po once daily for 5 consecutive days starting from day 75 post infection measured on day 81 post infection by ELISA. It counts as functional, organism-based.

For data set [17], the system named is Trypanosoma cruzi. Kind of data set: Trypanocidal activity against Trypanosoma cruzi MHOM/Pe/2011/Arequipa DTU 5 amastigotes infected in African green monkey Vero cells assessed as reduction in infected cells after 72 hrs by Giemsa-staining based assay. In kind it is functional, organism-based. Particulars: MHOM/Pe/2011/Arequipa DTU 5, Vero.
Data set [18] is described as follows: Hepatotoxicity in Balb/c mouse infected with Trypanosoma cruzi MHOM/Pe/2011/Arequipa DTU 5 trypomastigotes assessed as decrease in ratio of serum ALT to GPT level at 20 mg/kg, po once daily for 5 consecutive days starting from day 75 post infection measured on day 81 post infection relative to control. Conditions: in vivo. More on the design: scale not given: the % may be the effect or the level left. In kind it is toxicity, organism-based.

Data set [19] is described as follows: Selectivity index, ratio of IC50 for African green monkey Vero cells to IC50 for Trypanosoma cruzi MHOM/Pe/2011/Arequipa DTU 5 amastigotes infected in African green monkey Vero cells. Conditions: read-out: Ratio IC50. In kind it is toxicity.
The subject of data set [20] is Trypanosoma cruzi. Kind of data set: Trypanocidal activity against Trypanosoma cruzi IRHOD/CO/2008/SN3 DTU 1 amastigotes infected in African green monkey Vero cells after 72 hrs by Giemsa-staining based microscopic assay. In kind it is functional, organism-based. Conditions: IRHOD/CO/2008/SN3 DTU 1, Vero.
Data set [21] deals with Trypanosoma cruzi. Kind of data set: Trypanocidal activity against Trypanosoma cruzi TINF/CH/1956/Tulahuen DTU 6 amastigotes infected in African green monkey Vero cells after 72 hrs by Giemsa-staining based microscopic assay. Particulars: TINF/CH/1956/Tulahuen DTU 6, Vero. In kind it is functional, organism-based.
Data set [22] has as its system Trypanosoma cruzi. Kind of data set: Antitrypanosomal activity against Trypanosoma cruzi MHOM/Pe/2011/Arequipa DTU 5 trypomastigotes infected in Balb/c mouse assessed as reduction in Ig-G level in serum at 20 mg/kg, po once daily for 5 consecutive days starting from day 10 post infection measured on day 100 post infection by ELISA. It counts as functional, organism-based.

Data set [23] deals with Trypanosoma cruzi. Kind of data set: Antitrypanosomal activity against Trypanosoma cruzi MHOM/Pe/2011/Arequipa DTU 5 epimastigotes assessed as effect on parasite glycolytic pathway by measuring decrease in succinate excretion at IC25 after 72 hrs by 1H NMR method relative to control. On the set-up: scale not given: the % may be the effect or the level left. In kind it is functional.

Data set [24] concerns Trypanosoma cruzi. Kind of data set: Trypanocidal activity against Trypanosoma cruzi TINF/CH/1956/Tulahuen DTU 6 trypomastigotes derived from infected Balb/c albino mouse after 24 hrs by resazurin dye based assay. In kind it is functional, organism-based. Conditions: TINF/CH/1956/Tulahuen DTU 6, 24 h.
Data set [25] relates to Trypanosoma cruzi. Kind of data set: Inhibition of Trypanosoma cruzi MHOM/Pe/2011/Arequipa DTU 5 epimastigotes Fe-SOD at 100 uM by UV-Visible spectrophotometric method relative to control.

`O=C(Cn1ccnc1[N+](=O)[O-])NCc1ccccc1` [BENZNIDAZOLE]: the Activity was 64 U/L in data set [1]; “<= 10%” in [2]; 161 U/L in [3]; above 40% in [4]; “<= 10%” in [5]; “<= 10%” in [6]. Besides, the Activity in [7] is 49 U/L.

Regarding `Cl.Cl.Cl.NCCN(CCN)CCNCc1ccc2c(c1)Cc1ccccc1-2`, the outcome in [8], in [9], in [10], in [11], in data set [13] and in [22] was Active. The Activity in data set [1] was 64 U/L; in data set [12], 31%; in data set [2] it was “<= 10%”; in [18], “<= 10%”; in data set [4] it was above 40%; in data set [6] it was “<= 10%”. The Activity is on record as 49 U/L in [7] and 34% in data set [23]. The selectivity ratio in data set [14] turned out to be 57.5; in [19], 365. Besides, the IC50 in data set [15] was 26.6 µM; in data set [17] it was 8 µM; in data set [20] it was 19.7 µM; in data set [21], 15.1 µM; in [24] it was 17.6 µM. Also, in data set [16], the result was inactive.

For the molecule `Cl.Cl.Cl.Cl.Cl.Cl.c1ccc2nc(CNCCN(CCNCc3ccc4ccccc4n3)CCNCc3ccc4ccccc4n3)ccc2c1`, the outcome in data set [8], in [9], in data set [16] and in data set [22] was inactive. The outcome in data set [10], in data set [11] and in data set [13] was Active. Further, the Activity in [12] is given as 38%; in data set [3], 161 U/L; in data set [18], “<= 10%”; in data set [5] it was “<= 10%”; in data set [23], 49%. The selectivity ratio in [14] was 84.8; in data set [19], 692. The molecule also registered an inhibition in [25] of 100%. For the same molecule, the concentration for half-maximal inhibition (IC50) in data set [15] was determined as 15.1 µM; in data set [17] it was 3.6 µM; in data set [20], 1.6 µM; in data set [21], 2.3 µM; in [24], 1.9 µM.

As usually defined, the IC50 is the concentration at which inhibition is half-maximal. One may read the inhibition as the relative decrease from the control value, in per cent.
